Source: patent US6730672B2, “Aminoheterocyclic derivatives as antithrombotic or anticoagulant agents” (Zeneca Limited, priority 1994, dated 2004)

Key:
human Factor Xa = human Factor Xa (Homo sapiens, UniProt P00742); assay: Measurement of Factor Xa Inhibition (chromogenic substrate S-2765); type: biochemical; conditions: test a), pH7.5, 37° C., read-out: IC50 against Factor Xa
Protocol: a) Measurement of Factor Xa Inhibition
An in vitro assay system was carried out based on the method of Kettner et al., J. Biol. Chem., 1990, 265, 18289-18297, whereby various concentrations of a test compound were dissolved in a pH7.5 buffer containing 0.5% of polyethylene glycol and incubated at 37° C. with human Factor Xa (0.001 Units/ml, 0.3 ml) for 15 minutes. The chromogenic substrate S-2765 (KabiVitum AB, 20 μM) was added and the mixture was incubated at 37° C. for 20 minutes whilst the absorbance at 405 nm was measured. The maximum reaction velocity (Vmax) was determined and compared with that of a control sample containing no test compound. Inhibitor potency was expressed as an IC50 value.

human thrombin = human thrombin (Homo sapiens, UniProt P00734); assay: Measurement of Thrombin Inhibition (chromogenic substrate S-2238); type: biochemical; conditions: test b), read-out: IC50 against thrombin
Text: b) Measurement of Thrombin Inhibition
The procedure of method a) was repeated except that human thrombin (0.005 Units/ml) and the chromogenic substrate S-2238 (KabiVitum AB) were employed.

human blood plasma [1] = assay: Measurement of Anticoagulant Activity in vitro, prothrombin time (PT) test; type: biochemical; conditions: test c)
Protocol: (§1) c) Measurement of Anticoagulant Activity
(§2) An in vitro assay whereby human venous blood was collected and added directly to a sodium citrate solution (3.2 g/100 ml, 9 parts blood to 1 part citrate solution). Blood plasma was prepared by contrifugation (1000 g, 15 minutes) and stored at 2-4° C. Conventional activated partial thromboplastin time (APTT) and prothrombin time (PT) tests were carried out in the presence of various concentrations of a test compound and the concentration of test compound required to double the clotting time, hereinafter referred to as CT2, was determined. In the APTT test, the test compound, blood plasma and APTT reagent were incubated at 37° C. for 3 minutes. Calcium chloride (0.02M) was added and fibrin formation and the time required for a clot to form were determined. In the PT test, an analogous procedure was followed except that tissue thromboplastin was used in place of APTT reagent.

[2] = tested on: Alderley Park Wistar rats; assay: Ex vivo Assay of Anticoagulant Activity (APTT and PT coagulation assays after dosing); type: in vivo; conditions: test d), rat
Protocol: d) An ex vivo Assay of Anticoagulant Activity
The test compound was administered intravenously or orally to a group of Alderley Park Wistar rats. At various times thereafter animals were anaesthetised, blood was collected and APTT and PT coagulation assays analogous to those described hereinbefore were conducted.

human blood plasma [3] = assay: Measurement of Anticoagulant Activity in vitro, activated partial thromboplastin time (APTT) test; type: biochemical; conditions: test c)
Protocol: as §1, §2

[4] = tested on: Alderley Park Wistar rats; assay: In vivo Measurement of Antithrombotic Activity (thromboplastin/stasis-induced vena cava thrombus); conditions: test e), rat, 5 mg/kg dose
Protocol: e) An in vivo Measurement of Antithrombotic Activity
Thrombus formation was induced using an analogous method to that described by Vogel et al., Thromb. Research, 1989, 54, 399-410. A group of Alderley Park Wistar rats was anaesthetised and surgery was performed to expose the vena cava. […] Test compound was administered intravenously or orally. At an appropriate time thereafter tissue thromboplastin (1 ml/kg) was administered into the jugular vein and, after 10 seconds, the two sutures were tightened to induce stasis within the ligated portion of vena cava. After 10 minutes the ligated tissue was excised and the thrombus therein was isolated, blotted and weighed.

Chain of human Factor Xa (P00742 235-488 limits assumed): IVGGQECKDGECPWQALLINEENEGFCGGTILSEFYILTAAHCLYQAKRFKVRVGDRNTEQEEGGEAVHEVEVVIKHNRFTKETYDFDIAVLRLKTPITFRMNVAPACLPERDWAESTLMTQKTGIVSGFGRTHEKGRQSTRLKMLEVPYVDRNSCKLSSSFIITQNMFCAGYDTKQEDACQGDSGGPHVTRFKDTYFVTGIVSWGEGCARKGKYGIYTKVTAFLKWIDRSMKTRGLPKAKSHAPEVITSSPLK
Chain of human Factor Xa (P00742 41-179 partner limits assumed): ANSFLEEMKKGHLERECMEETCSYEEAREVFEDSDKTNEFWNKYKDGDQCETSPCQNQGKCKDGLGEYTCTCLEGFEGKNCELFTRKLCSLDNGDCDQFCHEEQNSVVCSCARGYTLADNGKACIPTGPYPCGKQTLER

Row | SMILES | IC50 (human Factor Xa) [nM] | IC50 (human thrombin) [nM] | melting point | CT2 (PT), concentration required to double the clotting time (human blood plasma [1]) [µM] | clotting time following intravenous administration ([2]; 5 mg/kg dose) | CT2 (APTT), concentration required to double the clotting time (human blood plasma [3]) [µM] | thrombus weight following intravenous administration [4] | clotting time following intravenous administration ([2]; 10 mg/kg dose)
1 | O=C(C1CCN(c2ccncc2)CC1)N1CCN(S(=O)(=O)/C=C/c2ccc(Cl)cc2)CC1 [Example 39, Compound No. 2, 1-[(E)-4-chlorostyrylsulphonyl]-4-[-1-(4-pyridyl)piperidin-4-ylcarbonyl]piperazine] | 12 | > 100000 | – | 1 | increased clotting time | 1.8 | reduced thrombus weight | –
2 | O=C(O)C1CN(S(=O)(=O)c2ccc3cc(Cl)ccc3c2)CCN1C(=O)C1CCN(c2ccncc2)CC1 (stereo not drawn) [Example 63, 2-carboxy-4-(6-chloronaphth-2-ylsulphonyl)-1-[1-(4-pyridyl)piperidin-4-ylcarbonyl]-piperazine] | 8 | > 10000 | 215 to 220 °C (dec.) | 4.6 | increased clotting time | – | reduced thrombus weight | –
3 | O=C(CNS(=O)(=O)c1ccc2ccccc2c1)NC(CNC(=O)C1CCN(c2ccncc2)CC1)C(=O)N1CCCCC1 (stereo not drawn) [Example 1, 2-(2-naphthalenesulphonamido)-N-{1-piperidinocarbonyl-2-[1-(4-pyridyl)-piperidin-4-ylcarbonylamino]ethyl}acetamide] | 300 | > 100000 | – | 14 | – | 62 | reduced thrombus weight | increased clotting time

These reach a lower IC50 (human Factor Xa). Values come first.

Row | IC50 (human Factor Xa) [nM] | IC50 (human thrombin) [nM] | melting point | SMILES | CT2 (PT), concentration required to double the clotting time (human blood plasma [1]) [µM] | clotting time following intravenous administration ([2]; 5 mg/kg dose) | CT2 (APTT), concentration required to double the clotting time (human blood plasma [3]) [µM] | thrombus weight following intravenous administration [4] | clotting time following intravenous administration ([2]; 10 mg/kg dose)
4 | 2 | > 10000 | – | CCOC(=O)C1CN(S(=O)(=O)c2ccc3cc(Cl)ccc3c2)CCN1C(=O)C1CCN(c2ccncc2)CC1 (stereo not drawn) [Example 62, 4-(6-chloronaphth-2-ylsulphonyl)-2-ethoxycarbonyl-1-[1-(4-pyridyl)-piperidin-4-ylcarbonyl]piperazine] | 0.7 | increased clotting time | – | – | –
5 | 3 | 34000 | – | O=C(C1CCN(c2ccncc2)CC1)N1CCN(S(=O)(=O)c2ccc3cc(Cl)ccc3c2)CC1 [Example 40, Compound No. 5, 1-(6-chloronaphth-2-ylsulphonyl)-4-[1-(4-pyridyl)piperidin-4-ylcarbonyl]piperazine] | 0.5 | increased clotting time | 1.2 | – | –
